Data as given in ChEMBL document CHEMBL1144400 (J Med Chem, 2005).

Target: Coagulation factor X (Homo sapiens, UniProt P00742)
Experiment: Binding affinity for human factor Xa

Coagulation factor X, sequence (P00742 41-179 limits assumed): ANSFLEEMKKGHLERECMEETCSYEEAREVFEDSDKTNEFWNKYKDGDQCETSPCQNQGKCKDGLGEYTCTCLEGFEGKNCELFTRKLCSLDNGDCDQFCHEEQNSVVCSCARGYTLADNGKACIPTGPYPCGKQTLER
Coagulation factor X, sequence (P00742 235-488 limits assumed): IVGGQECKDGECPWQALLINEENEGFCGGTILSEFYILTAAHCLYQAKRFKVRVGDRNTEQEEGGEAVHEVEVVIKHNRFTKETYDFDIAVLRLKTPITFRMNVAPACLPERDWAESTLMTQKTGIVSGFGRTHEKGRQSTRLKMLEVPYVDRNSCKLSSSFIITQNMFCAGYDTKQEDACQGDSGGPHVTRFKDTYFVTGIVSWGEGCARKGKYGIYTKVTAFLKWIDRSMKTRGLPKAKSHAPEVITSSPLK

SMILES | Ki [nM]
Cc1ccc2cc(C(=O)NC3CCN(C(C)C)CC3)n(Cc3cc(-c4ccc(Cl)s4)on3)c2c1 | 18
Cc1cccc2c1cc(C(=O)NC1CCN(C(C)C)CC1)n2CC(=O)Nc1ccc(C(=N)N)cc1 | 25
CC(C)N1CCC(NC(=O)c2cc3c(Cl)cccc3n2Cc2cc(-c3ccc(Cl)s3)on2)CC1 | 7
Cc1cccc2c(C#N)c(C(=O)NC3CCN(C(C)C)CC3)n(CC(=O)Nc3ccc(Cl)cc3)c12 | 26
COc1cccc(Cn2c(C(=O)NC3CCN(C(C)C)CC3)c(C#N)c3cccc(C)c32)c1 | 406
CC(C)N1CCC(NC(=O)c2cc3cc(Br)ccc3n2Cc2cc(-c3ccc(Cl)s3)on2)CC1 | 9

Continued by falling Ki, values first:

Ki [nM] | SMILES
7 | CC(C)N1CCC(NC(=O)c2c(C#N)c3cc(S(C)(=O)=O)ccc3n2Cc2cc(-c3ccc(Cl)s3)on2)CC1
3 | CC(C)N1CCC(NC(=O)c2cc3cc(F)ccc3n2Cc2cc(-c3ccc(Cl)s3)on2)CC1
3 | Cc1cccc2cc(C(=O)NC3CCN(C(C)C)CC3)n(CC(=O)Nc3ccc(Cl)cc3)c12
3 | Cc1c(C(=O)NC2CCN(C(C)C)CC2)n(Cc2cc(-c3ccc(Cl)s3)on2)c2ccccc12
1 | Cc1ccc(C)c2c1cc(C(=O)NC1CCN(C(C)C)CC1)n2Cc1cc(-c2ccc(Cl)s2)on1
0.7 | CC(C)N1CCC(NC(=O)c2cc3cccc(Cl)c3n2Cc2cc(-c3ccc(Cl)s3)on2)CC1
0.3 | CC(C)N1CCC(NC(=O)c2c(C#N)c3ccccc3n2Cc2cc(-c3ccc(Cl)s3)on2)CC1
0.1 | CC(C)N1CCC(NC(=O)c2cc3cccc([N+](=O)[O-])c3n2Cc2cc(-c3cc(Cl)cs3)on2)CC1
0.07 | Cc1cccc2c(C#N)c(C(=O)NC3CCN(C(C)C)CC3)n(Cc3cc(-c4ccc(Cl)s4)on3)c12
